Here are results for 20 compounds from patent US9695149B2, “1,2,6-substituted benzimidazoles as flap modulators” (JANSSEN PHARMACEUTICA NV, priority 2013, dated 2017).

Where a name gives a salt, the structure may show the parent alone.

The test system of assay [1] is leukotriene pathway in human whole blood. The experiment in a line: Human whole blood assay (LTB4, A23187-stimulated). It counts as cell-based. The following applies: human whole blood diluted 1:1 in RPMI, calcium ionophore A23187 7 μg/mL, 30 min. How it is done: (§1) The ability of the compounds of the present invention to treat a FLAP-mediated disease and/or disorder, or associated symptoms or complications thereof, was determined using the following procedures. Binding assay data represent the average value obtained from two different assay plates, with samples run in duplicate on each plate. Human whole blood assay data represent a single replicate on an assay plate using whole blood from at least one healthy donor.
An in vitro cellular assay was performed using human whole blood collected in heparin-containing tubes, which was used to test the ability of compounds to modulate the leukotriene pathway in human whole blood. The blood was diluted 1:1 in RPMI medium, pre-incubated for 15 min at 37° Celsius with test compounds at various concentrations, and then stimulated with calcium ionophore, A23187 (7 μg/mL), for 30 min at 37° Celsius. The samples were then centrifuged and plasma was removed. The plasma was diluted in assay buffer and LTB4 levels were measured using a commercial kit (Enzo Life Sciences). The concentration of each compound that was required for half-maximal inhibition (modulation) of […] (IC50) was calculated by a 4-parameter equation using the program GraphPad Prism (GraphPad software). For analysis, data are imported into 3DX and aggregated as the average of duplicates of the calculated ratios in order to calculate Ki and IC50 values. Numbers in parentheses are the number of runs for the assay.

The target of a further assay is human FLAP (Homo sapiens (Human), UniProt P20292). The experiment in a line: FLAP binding assay (HTRF format). Conditions: human FLAP-containing Sf-9 membranes, wild type; average of runs. The method, then:
as §1
The assay below is used to test the modulatory activity of compounds against FLAP. Human and mouse FLAP-encoding DNA was amplified by polymerase chain reaction and cloned into pFastBac1 (Invitrogen) with a NH2-terminal 6-His tag for expression in Spodoptera frugiperda (Sf-9) cells. FLAP-containing membranes were prepared as was a FITC-labeled FLAP modulator (3-(3-(tert-butylthio)-1-(4-chlorobenzyl)-5-(quinolin-2-ylmethoxy)-1H-indol-2-yl)-2,2-dimethylpropanoic acid). The FLAP binding assay is performed in HTRF format (homogeneous time resolved fluorescence). […] The reaction is allowed to proceed for two hours after which the plate is read on an Envision plate reader in HTRF mode. Data are expressed as a HTRF ratio.
For human FLAP binding assays, data are analyzed with 3DX Explorer software. […] For analysis, data from multiple runs are averaged and each compound may be tested in 2 to 20 runs. Each run comprises two plates and each plate includes duplicates. Data from each plate is averaged and data are imported into 3DX. The data from multiple runs are aggregated as the average of duplicates of the calculated ratios in order to calculate Ki and IC50 values. Numbers in parentheses are the number of runs for the assay.

Chain of human FLAP (P20292 whole entry): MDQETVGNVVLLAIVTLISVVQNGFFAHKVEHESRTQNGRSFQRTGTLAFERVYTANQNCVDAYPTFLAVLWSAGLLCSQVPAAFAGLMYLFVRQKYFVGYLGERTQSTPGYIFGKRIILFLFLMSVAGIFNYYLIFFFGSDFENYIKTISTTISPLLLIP

Regarding `Cc1ccc(COc2ccc3nc(C4CCCC[C@H]4C(=O)O)n(Cc4cccc(C)c4)c3c2)nc1` (mixture of isomers) [Example 201, racemic cis-2-{1-(3-Methylbenzyl)-6-[(5-methylpyridin-2-yl)methoxy]-1H-benzimidazol-2-yl}cyclohexanecarboxylic acid], the IC50 in assay [1] turned out to be 1680 nM. On human FLAP, this compound displayed a Ki of 12 nM.

As to `Cn1ccc(COc2ccc3nc(C4CCCC[C@H]4C(=O)O)n(Cc4cccc(N5CCC(F)(F)CC5)c4)c3c2)n1` (mixture of isomers) [Example 203, racemic cis-2-{1-[3-(4,4-Difluoropiperidin-1-yl)benzyl]-6-[(1-methyl-1H-pyrazol-3-yl)methoxy]-1H-benzimidazol-2-yl}cyclohexanecarboxylic acid], the IC50 in assay [1] (Homo sapiens, 0.5 h) turned out to be 730 nM. Moreover, affinity on human FLAP was put at a Ki of 18 nM.

`Cn1ccc(COc2ccc3nc(C4CCCC[C@H]4C(=O)O)n(Cc4cccc(N5CCCCC5)c4)c3c2)n1` (mixture of isomers) [Example 204, racemic cis-2-{6-[(1-Methyl-1H-pyrazol-3-yl)methoxy]-1-(3-piperidin-1-ylbenzyl)-1H-benzimidazol-2-yl}cyclohexanecarboxylic acid]: the IC50 in assay [1] (Homo sapiens, 0.5 h) was determined as 240 nM. Further, the Ki on human FLAP came to 31 nM.

For the compound `Cn1ccc(COc2ccc3nc(C4CCCC[C@H]4C(=O)O)n(Cc4cccc(N5CC(F)(F)C5)c4)c3c2)n1` (mixture of isomers) [Example 205, racemic cis-2-{1-[3-(3,3-Difluoroazetidin-1-yl)benzyl]-6-[(1-methyl-1H-pyrazol-3-yl)methoxy]-1H-benzimidazol-2-yl}cyclohexanecarboxylic acid as the trifluoroacetic acid salt], the 50% inhibitory concentration (IC50) in assay [1] (Homo sapiens, 0.5 h) worked out at 1670 nM. This compound also registered an inhibition constant Ki on human FLAP of 21 nM.

Take `Cc1ccc(COc2ccc3nc(C4CCCC[C@H]4C(=O)O)n(Cc4ccccc4C)c3c2)nc1` (mixture of isomers) [Example 206, racemic trans-2-{1-(2-Methylbenzyl)-6-[(5-methylpyridin-2-yl)methoxy]-1H-benzimidazol-2-yl}cyclohexanecarboxylic acid]: the IC50 in assay [1] (Homo sapiens, 0.5 h) came out at 1270 nM. The compound also displayed an inhibitory constant (Ki) at human FLAP of 45 nM.

For the compound `Cc1ccc(COc2ccc3nc(C4CCCC[C@H]4C(=O)O)n(Cc4ccccc4C)c3c2)nc1` (mixture of isomers) [Example 207, racemic cis-2-{1-(2-Methylbenzyl)-6-[(5-methylpyridin-2-yl)methoxy]-1H-benzimidazol-2-yl}cyclohexanecarboxylic acid], the half-inhibitory concentration (IC50) in assay [1] amounted to 1810 nM. The inhibitory constant (Ki) on human FLAP is 31 nM.

Turning to `Cc1ccc(COc2ccc3nc(C4CCCC[C@H]4C(=O)O)n(Cc4cc(N5CCC(F)(F)CC5)ccc4F)c3c2)nc1` (mixture of isomers) [Example 208, racemic cis-2-{1-[5-(4,4-Difluoropiperidin-1-yl)-2-fluorobenzyl]-6-[(5-methylpyridin-2-yl)methoxy]-1H-benzimidazol-2-yl}cyclohexanecarboxylic acid], the IC50 in assay [1] (Homo sapiens, 0.5 h) amounted to 370 nM. The affinity on human FLAP, expressed as Ki, was 9.5 nM.

On to `Cc1ccc(COc2ccc3nc(C4CCCC[C@H]4C(=O)O)n(Cc4cc(N5CCCCC5)ccc4F)c3c2)nc1` (mixture of isomers) [Example 209, racemic cis-2-{1-(2-Fluoro-5-piperidin-1-ylbenzyl)-6-[(5-methylpyridin-2-yl)methoxy]-1H-benzimidazol-2-yl}cyclohexanecarboxylic acid], for which, in assay [1] (Homo sapiens, 0.5 h), the half-maximal inhibitory concentration (IC50) amounted to 150 nM. The compound also registered an inhibitory constant (Ki) at human FLAP of 3.8 nM.

`Cc1ccc(COc2ccc3nc(C4CCCC[C@H]4C(=O)O)n(Cc4cccc(N5CC(F)(F)C5)c4)c3c2)nc1` (mixture of isomers) [Example 219, racemic cis-2-{1-[3-(3,3-Difluoroazetidin-1-yl)benzyl]-6-[(5-methylpyridin-2-yl)methoxy]-1H-benzimidazol-2-yl}cyclohexanecarboxylic acid]: in assay [1] (Homo sapiens, 0.5 h), the IC50 came out at 1600 nM. The same compound came in with a Ki at human FLAP of 9.1 nM.

As for `Cc1ccc(COc2ccc3nc(C4CCCC[C@H]4C(=O)O)n(Cc4cccc(N5CCC(F)(F)CC5)c4)c3c2)nc1` (mixture of isomers) [Example 221, racemic cis-2-{1-[3-(4,4-Difluoropiperidin-1-yl)benzyl]-6-[(5-methylpyridin-2-yl)methoxy]-1H-benzimidazol-2-yl}cyclohexanecarboxylic acid], the IC50 in assay [1] (Homo sapiens, 0.5 h) is 500 nM. This compound also gave a Ki on human FLAP of 6.6 nM.

For the compound `Cc1ccc(COc2ccc3nc(C4CCCC[C@H]4C(=O)O)n(Cc4cccc(N5CCCC(F)(F)C5)c4)c3c2)nc1` (mixture of isomers) [Example 222, racemic cis-2-{1-[3-(3,3-Difluoropiperidin-1-yl)benzyl]-6-[(5-methylpyridin-2-yl)methoxy]-1H-benzimidazol-2-yl}cyclohexanecarboxylic acid], the IC50 in assay [1] (Homo sapiens, 0.5 h) worked out at 310 nM. Besides, the Ki at human FLAP was 3.8 nM.

Turning to `Cc1ccc(COc2ccc3nc(C4CCCC[C@H]4C(=O)O)n(Cc4cccc(Br)c4)c3c2)nc1` (mixture of isomers) [Example 228, racemic cis-2-{1-(3-Bromobenzyl)-6-[(5-methylpyridin-2-yl)methoxy]-1H-benzimidazol-2-yl}cyclohexanecarboxylic acid], the IC50 in assay [1] (Homo sapiens, 0.5 h) stood at 4010 nM. Further, the affinity at human FLAP corresponds to a Ki of 6.8 nM.

Take `Cn1ccc(COc2ccc3nc(C4CCCC[C@H]4C(=O)O)n(Cc4cc(Br)ccc4F)c3c2)n1` (mixture of isomers) [Example 233, racemic cis-2-{1-(5-Bromo-2-fluorobenzyl)-6-[(1-methyl-H-pyrazol-3-yl)methoxy]-1H-benzimidazol-2-yl}cyclohexanecarboxylic acid]: the 50% inhibitory concentration (IC50) in assay [1] (Homo sapiens, 0.5 h) amounted to 2260 nM. The compound also gave an inhibitory constant (Ki) on human FLAP of 35 nM.

Take `Cn1ccc(COc2cc(F)c3nc(C4CCCC[C@H]4C(=O)O)n(Cc4ccc(N5CCC(F)(F)C5)cc4)c3c2)n1` (mixture of isomers) [Example 236, racemic cis-2-{1-[4-(3,3-Difluoropyrrolidin-1-yl)benzyl]-4-fluoro-6-[(1-methyl-1H-pyrazol-3-yl)methoxy]-1H-benzimidazol-2-yl}cyclohexanecarboxylic acid]: in assay [1] (Homo sapiens, 0.5 h), the concentration for half-maximal inhibition (IC50) was 1650 nM. For the same compound, on human FLAP, the Ki amounted to 2.4 nM.

As to `Cn1ccc(COc2ccc3nc(C4CCCC[C@H]4C(=O)O)n(Cc4cccc(Br)c4)c3c2)n1` (single isomer, unassigned) [Example 197, (1S*,2R*)-2-{1-(3-Bromobenzyl)-6-[(1-methyl-1H-pyrazol-3-yl)methoxy]-1H-benzimidazol-2-yl}cyclohexanecarboxylic acid], the half-inhibitory concentration (IC50) in assay [1] (Homo sapiens, 0.5 h) was found to be 1810 nM. This compound returned a Ki at human FLAP of 6.6 nM.

On to `Cc1cnc(COc2ccc3nc(CC(C)(C)C(=O)O)n(Cc4cccc(Br)c4)c3c2)c(F)c1` [Example 191, 3-{1-(3-Bromobenzyl)-6-[(3-fluoro-5-methylpyridin-2-yl)methoxy]-1H-benzimidazol-2-yl}-2,2-dimethylpropanoic acid], for which the IC50 in assay [1] (Homo sapiens, 0.5 h) is above 10000 nM. The same compound yielded a Ki at human FLAP of 70 nM.

On to `Cc1cnc(COc2ccc3nc(CC(C)(C)C(=O)O)n(Cc4cc(Br)ccc4F)c3c2)c(F)c1` [Example 193, 3-{1-(5-Bromo-2-fluorobenzyl)-6-[(3-fluoro-5-methylpyridin-2-yl)methoxy]-1H-benzimidazol-2-yl}-2,2-dimethylpropanoic acid], for which the IC50 in assay [1] (Homo sapiens, 0.5 h) amounted to 5550 nM. Moreover, at human FLAP, the affinity, expressed as Ki, was 120 nM.

For `CCC(CC)(Cc1nc2ccc(OCc3ncc(C)cc3F)cc2n1Cc1ccc(N2CCC(C(F)(F)F)CC2)cc1)C(=O)O` [Example 194, 2-Ethyl-2-[(6-[(3-fluoro-5-methylpyridin-2-yl)methoxy]-1-{4-[4-(trifluoromethyl)piperidin-1-yl]benzyl}-1H-benzimidazol-2-yl)methyl]butanoic acid], the IC50 in assay [1] (Homo sapiens, 0.5 h) was 580 nM. The compound also showed an inhibition constant Ki on human FLAP of 5.7 nM.

`CCC(CC)(Cc1nc2ccc(OCc3ccn(C)n3)cc2n1Cc1cccc(N2CCC(F)(F)C2)c1)C(=O)O` [Example 211, 2-({1-[3-(3,3-Difluoropyrrolidin-1-yl)benzyl]-6-[(1-methyl-1H-pyrazol-3-yl)methoxy]-1H-benzimidazol-2-yl}methyl)-2-ethylbutanoic acid]: the 50% inhibitory concentration (IC50) in assay [1] (Homo sapiens, 0.5 h) stood at 840 nM. The same compound came in with an inhibitory constant (Ki) on human FLAP of 35 nM.

As for `CCC(CC)(Cc1nc2ccc(OCc3ccn(C)n3)cc2n1Cc1cccc(N2CCCCC2)c1)C(=O)O` [Example 212, 2-Ethyl-2-({6-[(1-methyl-1H-pyrazol-3-yl)methoxy]-1-(3-piperidin-1-ylbenzyl)-1H-benzimidazol-2-yl}methyl)butanoic acid], the IC50 in assay [1] (Homo sapiens, 0.5 h) was determined as 1080 nM. For the same compound, on human FLAP, the inhibition constant (Ki) turned out to be 90 nM.
